Assay [1] concerns intracellular cAMP. In words: Effect of PGE2 on intracellular cAMP in osteoblastic cell lines. The assay is classed as cell-based, rat.
For assay [2], the system named is EP4 mRNA. In words: EP4 mRNA levels in bone-derived cell lines (Northern blot). Type of assay: cell-based, rat. The protocol:
(§1) RP-1 periosteal cells are spontaneously immortalized from primary cultures of periosteal cells from tibae of 4-week old Sprague-Dawley rats and are cultured in DMEM (BRL, Gaithersburg, Md.) with 10% fetal bovine serum (JRH Biosciences, Lenexa, Kans.).
RCT-1 and RCT-3 are clonal cell lines immortalized by SV-40 large T antigen from cells released from fetal rat calvair by a cmbination collagenase/hyaluronidase digestion. RCT-1 cells, derived from cells released during the first 10 minutes of digestion (fraction I), are cultured in RPMI 1640 medium (BRL) with 10% fetal bovine serum and 0.4 mg/ml G418 (BRL). These cells differentiate and express osteoblastic features upon retinoic acid treatment. RCT-3 cells, immortalized from osteoblast-enriched fraction III cells, are cultured in F-12 medium (BRL) with 5% Fetal bovine serum and 0.4 mg/ml G418. TRAB-11 cells are also immortalized by SV40 large T antigen from adult rat tibia and are cultured in RPML 1640 medium with 10% FBS and 0.4 mg/ml G418. ROS 17/2.8 rat osteosarcoma cells are cultured in F-12 containing 5% FBS. Osteoblast-enriched (fraction E) primary fetal rat calvaria cells are obtained by collagenase/hyaluronidase digestion of calvariae of 19 day-old rat fetuses. See Rodan et al., Growth stimulation of rat calvaria osteoblastic cells by acidic FGF, Endocrinology, 121, 1919-1923 (1987), which is incorporated by reference herein in its entirety. Cells are released during 30-50 minutes digestion (fraction E) and are cultured in F-12 medium containing 5% […].
(§2) Total RNA is extracted from the tibial metaphysis or diaphysis and calvaria using a guanidinium isothiocyanate-phenol-chloroform method after pulverizing frozen bone samples by a tissue homogenizer. See P. Chomczynski et al., Single-step method of RNA isolation by acid guanlidium thiocyanate-phenol-chloroform extraction., Analyt Biochem, 162, 156-159 (1987), which is incorporated by reference herein in its entirety. RNA samples ([…]) are separated on 0.9% agarose/formaldehyde gels and transferred onto nylon membranes (Boehringer Mannheim, Germany). […]

For assay [3], the system named is EP2 mRNA. In words: EP2 mRNA in RP-1 periosteal cells (Northern blot). The assay is classed as cell-based, rat. The conditions noted are these: RP-1 cells. The protocol: as §1
(§3) Total RNA is extracted from the tibial metaphysis or diaphysis and calvaria using a guanidinium isothiocyanate-phenol-chloroform method after pulverizing frozen bone samples by a tissue homogenizer. See P. Chomczynski et al., Single-step method of RNA isolation by acid guanlidium thiocyanate-phenol-chloroform extraction., Analyt Biochem, 162, 156-159 (1987), which is incorporated by reference herein in its entirety. RNA samples ([…]) are separated on 0.9% agarose/formaldehyde gels and transferred onto nylon membranes (Boehringer Mannheim, Germany). Membranes are prehybridized in Hybrisol I (Oncor, Gaithersburg, Md.) and 0.5 mg/ml sonicated salmon sperm DNA (Boehringer) at 42° C. for 3 hours and are hybridized at 42° C. with rat EP2 and mouse EP4 cDNA probes labeled with [^32P]-dCTP (Amersham, Buckinghamshire, UK) by random priming using the rediprime kit (Amersham). After hybridization, membranes are washed 4 times in 2×SSC+0.1% SDS at room temperature for a total of 1 hour and once with 0.2×SSC+0.1% SDS at 55° C. for 1 hour and then exposed to Kodak XAR 2 film at −70° C. using intensifying screens. […]

Assay [4] has as its system EP4 mRNA. Briefly: EP4 mRNA levels in bone tissue after systemic injection (Northern blot). The assay is classed as in vivo, rat. To be noted: tibial diaphysis, 3-6 mg/Kg systemic.
From the text: For mRNA localization experiments, 5-week old Sprague-Dawley rats (Charles River) are euthanized by CO2, their tibiae and calvariae are excised, cleaned of soft tissues and frozen immediately in liquid nitrogen. […] Animals are euthanized at several time points post-injection and their tibiae and calvariae, as well as samples from lung and kidney tissues are frozen in liquid nitrogen.
as §3, with “(Amersham).” for “(Amersham). After hybridization, membranes are washed 4 times in 2×SSC+0.1% SDS at room temperature for a total of 1 hour and once with 0.2×SSC+0.1% SDS at 55° C. for 1 hour and then exposed to Kodak XAR 2 film at −70° C. using intensifying screens.”

Assay [5] deals with EP2 mRNA. In words: EP2 mRNA in bone tissue after systemic injection (Northern blot). The assay is classed as in vivo, rat. How it is done:
(§4) For mRNA localization experiments, 5-week old Sprague-Dawley rats (Charles River) are euthanized by CO2, their tibiae and calvariae are excised, cleaned of soft tissues and frozen immediately in liquid nitrogen. For EP4 regulation experiments, 6-week old rats are given a single injection of either vehicle (7% ethanol in sterile water) or an anabolic dose of PGE2 (Cayman Chemical, Ann Arbor, Mich., 3-6 mg/kg in the same vehicle) intraperitoneally. Animals are euthanized at several time points post-injection and their tibiae and calvariae, as well as samples from lung and kidney tissues are frozen in liquid nitrogen.
as §2

The test system of assay [6] is EP4 mRNA. In words: Localization of EP4 mRNA expression in bone tissue by in situ hybridization. To be noted: single anabolic dose, rat tibia. Type of assay: in vivo. The protocol:
as §4
Frozen tibiae are sectioned coronally at […] thickness and sections are mounted on charged slides (Probe On Plus, Fisher Scientific, Springfield, N.J.) and are kept at −70° C. until hybridization. cRNA probes are labeled with ^35S-UTPgS (ICN, Costa Mesa, Calif.) using a Riboprobe II kit (Promega Madison, Wis.). Hybridization is performed overnight at 50° C. […]
In situ hybridization is used in order to localize cells expressing EP4 in bone. In control experiment (vehicle-injected) rats, low expression of EP4 is detected in bone marrow cells. […]

`CCCCC[C@H](O)/C=C/[C@H]1[C@H](O)CC(=O)[C@@H]1C/C=C\CCCC(=O)O` [PGE2]: the “effect on intracellular cAMP” value in assay [1] (RCT-3 cells) was “markedly induced”; in assay [1] (ROS 17/2.8 rat osteosarcoma cells) it was “no effect”; in assay [1] (TRAB-11 cells) it was “markedly induced”. For the same compound, the “effect on EP4 mRNA levels” value in assay [2] (RCT-3 cells) was “no effect”; in assay [2] (RP-1 periosteal cells, 10^−6 M), “rapidly increases”; in assay [4] (five-week-old male rats), “rapidly increased”. In addition, the “time of peak EP4 mRNA level after treatment” value in assay [2] (RP-1 periosteal cells, 10^−6 M) was 2 h. The “EP2 mRNA expression before or after treatment” value in assay [3] is “not expressed”. For the same compound, in assay [4], the “time of peak EP4 mRNA level after injection” value turned out to be 2 h. Moreover, the “induction of EP2 mRNA” value in assay [5] is on record as “does not induce”. The “expression of EP4 in bone marrow cells” value in assay [6] is “increased”.

The values above are taken from US20060258726A1, “1,5-Disubstituted imidazolidin-2-one derivatives for use as ep4 receptor agonists in the treatment of eye and bone diseases” (priority 2002, published 2006).
